Data as given in EP0329904A1, “Use of quinolizine and quinolizinone derivatives in the manufacture of medicaments for the treatment of anxiety” (MERRELL DOW PHARMACEUTICALS INC., priority 1988, dated 1989).
Where a name gives a salt, the structure may show the parent alone.

System: Von Bezold-Jarisch Reflex induced by 5-HT
Assay: Von Bezold-Jarisch Reflex induced by 5-HT injected intravenously
Format: in vivo
Details: rat
Excerpt: The activity of these compounds against 5-HT can be assessed in vivo by measurement of the effect of the compound on the Von Bezold-Jarisch Reflex induced by 5-HT injected intravenously into the rat (see Paintal A.S., Physiol. Rev. 53, 159-227, 1973; J.R. Fozard, Naunyn-Schmiedeberg's Arch. Pharmacol., 326, 1984, 36-44). The transient cardiac slowing arises from an increased afferent vagus activity arising from stimulation by 5-HT of sensory afferent fibers in and around the heart.

[1] = doses of 0.01-0.1 mg/kg given intravenously
[2] = doses of 0.25-1 mg/kg given orally

Compound	suppression of the Von Bezold-Jarisch Reflex response [1]	suppression of the Von Bezold-Jarisch Reflex response [2]
Cc1cc(C)cc(C(=O)OC2CC3CC4CC(C2)N3CC4=O)c1 (stereo not drawn) [endo-8-(3,5-dimethylbenzoyloxy)hexahydro-2,6-methano-2H-quinolizin-3(4H)-one]	suppressed the response dose-dependently	suppressed the response dose-dependently
O=C(OC1CC2CC3CC(C1)N2CC3=O)c1c[nH]c2ccccc12 (stereo not drawn) [endo-hexahydro-8-(3-indolylcarbonyloxy)-2,6-methano-2H-quinolizin-3(4H)one hydrochloride]	suppressed the response dose-dependently	suppressed the response dose-dependently
